The record followed here is patent US11970496B1, “Pyrrolo[3,2-c]quinoline compounds as CK2 inhibitors” (KING FAISAL UNIVERSITY, priority 2023, dated 2024).

Assay [1] concerns H1299 (lung). In words: In vitro cytotoxic activity assay (MTT), H1299. Type of assay: cell-based. The settings on record: Homo sapiens, NCI-H1299; H1299 cells, exposed for 96 hours; read-out: IC50, 50% inhibition of cell proliferation, H1299 (lung). Here is the method:
(§1) Compounds 1-12 were screened for their in vitro cytotoxic activity utilizing a 3-(4,5-dimethyl-thiazol-2-yl)-2,5-diphenyltetrazolium bromide (MTT) assay against selected cancer human cell lines consisting of PC3 (prostate), HCT116 (colon), A375 (melanoma), H1299 (lung), MIAPaCa-2 (pancreas), HL60 (leukemia), MCF7 (breast), MDA-MB-231 (breast) (T. Mosmann, J. Immunol. Meth., 1983, 65, 55-63). The cells were cultured at 37° C. in RMPI1640 medium supplemented with 10% fetal bovine serum, 50 IU/mL penicillin, and 50 μg/mL streptomycin in a 5% CO2 incubator. All cells were sub-cultured 3 times/week by trypsinisation. Viable cells were seeded and allowed to adhere for 12 h before a test drug was added in 96-well plates at an initial density of 1.0×10^5 cells/mL. Tumour cell lines were separately exposed to various concentrations of the tested compounds followed by incubation at a temperature of 37° C. during 96 h inside a medium of fresh RMPI 1640. Cells were subsequently incubated at 37° C. using MTT at 0.5 mg/mL during 4 h. After removal of supernatant, formazan crystals were dissolved in isopropanol and the optical density was measured at 570 nm. CX-4945 was used as a positive control.

For assay [2], the system named is A375 (melanoma). The assay is described as follows: In vitro cytotoxic activity assay (MTT), A375. The assay is classed as cell-based. The following applies: Homo sapiens, A-375; A375 cells, exposed for 96 hours; read-out: IC50, 50% inhibition of cell proliferation, A375 (melanoma). The protocol:
as §1

In assay [3] the test system is MCF7 (breast). In words: In vitro cytotoxic activity assay (MTT), MCF7. The following applies: Homo sapiens; MCF7 cells, exposed for 96 hours; read-out: IC50, 50% inhibition of cell proliferation, MCF7 (breast). The assay is classed as cell-based. Here is the method:
as §1

In assay [4] the test system is HCT116 (colon). In words: In vitro cytotoxic activity assay (MTT), HCT116. Type of assay: cell-based. The following applies: Homo sapiens, HCT-116; HCT116 cells, exposed for 96 hours; read-out: IC50, 50% inhibition of cell proliferation, HCT116 (colon). Here is the method:
as §1

The subject of assay [5] is HL60 (leukemia). The assay is described as follows: In vitro cytotoxic activity assay (MTT), HL60. The assay is classed as cell-based. The following applies: Homo sapiens, HL-60; HL60 cells, exposed for 96 hours; read-out: IC50, 50% inhibition of cell proliferation, HL60 (leukemia). Here is the method: as §1
Assay [6] relates to MIAPaCa-2 (pancreas). The assay is described as follows: In vitro cytotoxic activity assay (MTT), MIAPaCa-2. The assay is classed as cell-based. The following applies: Homo sapiens, MIA PaCa-2; MIAPaCa-2 cells, exposed for 96 hours; read-out: IC50, 50% inhibition of cell proliferation, MIAPaCa-2 (pancreas). Here is the method: as §1
Assay [7] deals with T1, recombinant human CK2 (RRββ-holoenzyme) (Homo sapiens, UniProt P68400).
T1 construct: purchased Millipore
T1 sequence (P68400 whole entry): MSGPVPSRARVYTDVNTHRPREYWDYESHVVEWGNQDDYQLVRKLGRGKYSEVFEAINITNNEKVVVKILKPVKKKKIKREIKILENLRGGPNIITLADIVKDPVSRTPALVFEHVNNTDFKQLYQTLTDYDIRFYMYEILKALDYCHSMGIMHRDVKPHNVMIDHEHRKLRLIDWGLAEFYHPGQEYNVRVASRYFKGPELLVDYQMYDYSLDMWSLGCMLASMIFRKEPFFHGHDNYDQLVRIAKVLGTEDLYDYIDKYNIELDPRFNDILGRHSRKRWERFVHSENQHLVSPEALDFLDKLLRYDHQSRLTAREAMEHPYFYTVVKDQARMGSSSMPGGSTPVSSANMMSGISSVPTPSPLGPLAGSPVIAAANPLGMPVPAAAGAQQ
T1 sequence (P67870 whole entry partner): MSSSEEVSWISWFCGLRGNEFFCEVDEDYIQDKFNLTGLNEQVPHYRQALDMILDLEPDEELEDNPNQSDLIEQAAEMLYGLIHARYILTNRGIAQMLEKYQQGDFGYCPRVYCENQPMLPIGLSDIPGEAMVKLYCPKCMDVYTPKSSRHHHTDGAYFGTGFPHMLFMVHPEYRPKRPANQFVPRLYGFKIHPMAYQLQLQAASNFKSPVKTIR
The assay is described as follows: CK2 Kinase Assay (33P-ATP, substrate peptide RRRDDDSDDD). The assay is classed as biochemical. The following applies: final ATP concentration 15 μM, 10 min at 30° C.; read-out: protein kinase CK2 IC50. The protocol: CK2 Kinase Assay was conducted using the protocol as described in Pierre F. et al; J. Med. Chem. 2011, 54, 635-654. The tested compounds in aqueous solution were added at a volume of 10 μL to a reaction mixture comprising 10 μL of assay dilution buffer (ADB; 20 mM MOPS, pH 7.2, 25 mM (3-glycerol phosphate, 5 mM EGTA, 1 mM sodium orthovanadate, and 1 mM dithiothreitol), 10 μL of substrate peptide (RRRDDDSDDD, dissolved in ADB at a concentration of 1 mM), 10 μL of recombinant human CK2 (RRββ-holoenzyme, 25 ng dissolved in ADB; Millipore). Reactions were initiated by the addition of 10 μL of ATP solution (90% 75 mMMgCl2, 75 μM ATP (final ATP concentration: 15 μM) dissolved in ADB; 10% [γ-33P] ATP (stock 1 mCi/100 μL; 3000 Ci/mmol (Perkin-Elmer) and maintained for 10 min at 30° C. The reactions were quenched with 100 μL of 0.75% phosphoric acid and then transferred to and filtered through a phosphor cellulose filter plate (Millipore). After washing each well five times with 0.75% phosphoric acid, the plate was dried under vacuum for 5 min and, following the addition of 15 μL of scintillation fluid to each well, the residual radioactivity was measured using a Wallac […]. The IC50 values were derived from eight concentrations of test inhibitors.

Assay [8] concerns MDA-MB-231 (breast). The assay is described as follows: In vitro cytotoxic activity assay (MTT), MDA-MB-231. Type of assay: cell-based. The settings on record: Homo sapiens; MDA-MB-231 cells, exposed for 96 hours; read-out: IC50, 50% inhibition of cell proliferation, MDA-MB-231 (breast). The protocol: as §1
Assay [9] deals with PC3 (prostate). The assay is described as follows: In vitro cytotoxic activity assay (MTT), PC3. The assay is classed as cell-based. The following applies: Homo sapiens, PC-3; PC3 cells, exposed for 96 hours; read-out: IC50, 50% inhibition of cell proliferation, PC3 (prostate). Here is the method:
as §1

SMILES strings stand for the structures.

As to `O=C(O)c1ccc2c(c1)nc(Nc1cccc(Cl)c1)c1cc(C(=O)O)[nH]c12` [Compound 1, 4-((3-chlorophenyl)amino)-1H-pyrrolo[3,2-c]quinoline-2,7-dicarboxylic acid], the IC50 in [1] came to 1600 nM; in [2] it was 2200 nM; in assay [3] it was 4.4 µM; in [4], 1900 nM; in [5], 2900 nM; in [6], 1300 nM. The IC50 is 37 nM in assay [7], 3.5 µM in assay [8] and 1800 nM in assay [9].
